# Laboratory results taken from article PMC4829233, “Identification of Novel Chemical Scaffolds Inhibiting Trypanothione Synthetase from Pathogenic Trypanosomatids” (PLoS Neglected Tropical Diseases, 2016).
# Where two headings read alike, the source gives them in different places.
# How the values were obtained:
# Experiment in all cases: biochemical
# [1] = molecular target: TcTryS (Trypanosoma cruzi trypanothione synthetase) (Trypanosoma cruzi, UniProt Q9GT49); type: biochemical; conditions: for remaining activity at 30 µM: read-out: TcTryS Activity ± 2σn-1 (%); for inhibition at 30 µM: read-out: % TcTryS inhibition ± 2σn-1
# Chain of TcTryS (Trypanosoma cruzi trypanothione synthetase) (Q9GT49 whole entry): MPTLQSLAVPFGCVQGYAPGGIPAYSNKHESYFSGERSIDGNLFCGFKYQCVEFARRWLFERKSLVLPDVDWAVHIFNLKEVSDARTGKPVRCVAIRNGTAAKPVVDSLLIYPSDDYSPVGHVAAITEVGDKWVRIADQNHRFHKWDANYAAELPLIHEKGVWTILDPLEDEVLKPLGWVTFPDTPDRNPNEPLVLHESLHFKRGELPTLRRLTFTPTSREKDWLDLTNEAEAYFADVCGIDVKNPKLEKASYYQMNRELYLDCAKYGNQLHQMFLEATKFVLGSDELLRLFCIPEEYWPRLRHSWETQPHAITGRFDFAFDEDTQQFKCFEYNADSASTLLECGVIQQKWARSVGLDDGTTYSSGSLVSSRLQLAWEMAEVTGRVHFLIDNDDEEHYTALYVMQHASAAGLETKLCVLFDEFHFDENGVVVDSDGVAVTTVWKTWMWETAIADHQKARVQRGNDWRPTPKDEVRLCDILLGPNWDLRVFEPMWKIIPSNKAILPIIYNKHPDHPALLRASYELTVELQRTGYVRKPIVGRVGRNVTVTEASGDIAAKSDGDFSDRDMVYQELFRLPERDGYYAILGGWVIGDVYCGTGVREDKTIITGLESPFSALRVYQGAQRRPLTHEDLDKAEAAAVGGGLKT
# [2] = molecular target: LiTryS (Leishmania infantum trypanothione synthetase) (Leishmania infantum, UniProt A4I2Z3); type: biochemical; conditions: for activity at 30 µM: read-out: LiTryS Activity ± 2σn-1 (%)
# Chain of LiTryS (Leishmania infantum trypanothione synthetase) (A4I2Z3 1-652): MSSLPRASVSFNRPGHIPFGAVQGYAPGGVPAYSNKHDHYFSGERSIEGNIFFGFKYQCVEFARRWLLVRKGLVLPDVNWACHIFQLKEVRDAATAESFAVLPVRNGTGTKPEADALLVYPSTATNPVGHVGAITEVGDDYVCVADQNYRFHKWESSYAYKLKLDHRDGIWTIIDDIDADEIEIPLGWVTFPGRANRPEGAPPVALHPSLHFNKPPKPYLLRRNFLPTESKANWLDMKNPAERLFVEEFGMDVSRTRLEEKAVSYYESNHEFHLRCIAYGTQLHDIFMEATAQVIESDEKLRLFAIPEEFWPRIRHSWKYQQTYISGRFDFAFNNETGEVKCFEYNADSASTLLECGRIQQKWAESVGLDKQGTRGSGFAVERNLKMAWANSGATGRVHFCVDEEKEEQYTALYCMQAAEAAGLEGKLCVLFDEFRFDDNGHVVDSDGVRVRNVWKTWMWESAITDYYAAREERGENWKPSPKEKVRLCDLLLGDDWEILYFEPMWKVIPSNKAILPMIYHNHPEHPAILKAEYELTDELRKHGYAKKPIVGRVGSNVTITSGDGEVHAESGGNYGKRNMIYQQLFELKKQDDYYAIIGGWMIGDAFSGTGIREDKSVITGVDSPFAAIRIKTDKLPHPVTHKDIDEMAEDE
# [3] = molecular target: TbTryS (Trypanosoma brucei trypanothione synthetase) (Trypanosoma brucei brucei, UniProt Q8IEX1); conditions: for activity at 30 µM: read-out: TbTryS Activity ± 2σn-1 (%)
# Chain of TbTryS (Trypanosoma brucei trypanothione synthetase) (Q8IEX1 1-627): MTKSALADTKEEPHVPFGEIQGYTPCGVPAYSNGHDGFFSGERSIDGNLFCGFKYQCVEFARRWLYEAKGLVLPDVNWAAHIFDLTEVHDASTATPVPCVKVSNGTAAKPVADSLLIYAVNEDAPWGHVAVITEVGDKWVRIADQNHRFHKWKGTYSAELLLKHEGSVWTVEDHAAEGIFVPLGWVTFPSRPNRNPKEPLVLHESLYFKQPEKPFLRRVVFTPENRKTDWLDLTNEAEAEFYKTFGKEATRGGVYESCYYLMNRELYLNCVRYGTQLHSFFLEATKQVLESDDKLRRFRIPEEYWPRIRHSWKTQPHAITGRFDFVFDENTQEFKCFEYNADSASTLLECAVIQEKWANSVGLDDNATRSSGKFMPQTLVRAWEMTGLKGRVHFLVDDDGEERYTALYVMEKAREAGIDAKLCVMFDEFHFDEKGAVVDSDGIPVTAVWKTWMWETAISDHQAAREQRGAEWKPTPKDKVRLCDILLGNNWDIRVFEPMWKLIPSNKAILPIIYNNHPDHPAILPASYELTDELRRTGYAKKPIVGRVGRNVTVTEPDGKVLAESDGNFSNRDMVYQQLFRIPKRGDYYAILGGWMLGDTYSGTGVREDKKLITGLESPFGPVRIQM
SMILES,TcTryS Activity ± 2σn-1 (%) [1],LiTryS Activity ± 2σn-1 (%) [2],TbTryS Activity ± 2σn-1 (%) [3],other results
COc1ccc(C2C(C(=O)c3ccc4c(c3)OCCO4)=C(O)C(=O)N2c2nc3ccc(C)cc3s2)cc1 (stereo not shown) [AD81],109.7 ± 8.9; 4%,–,–,remaining activity at 30 µM [1]: 110 ± 8.9%; activity at 30 µM [2]: 83.9 ± 4.2%; TbTryS Activity ± 2σn-1 (%) ([3]; 30 µM): 128.2 ± 3.6 ; 8 (0.93) %; activity at 30 µM [3]: 128%
Cc1ccc2nc(N3C(=O)C(O)=C(C(=O)c4ccc5c(c4)OCCO5)C3c3ccc(O)cc3)sc2c1 (stereo not shown) [AD82],103.4 ± 6.4; 2%,86.2 ± 5.8; 4%,107.7 ± 6.4; 4%,–
O=C(C1=C(O)C(=O)N(c2nc3ccc(Cl)cc3s2)C1c1ccc(O)cc1)c1ccc2c(c1)OCCO2 (stereo not shown) [AD83],93.6 ± 4.7; 3 (0.93) %,83.9 ± 3.8; 4%,106.9 ± 4.7; 3%,–
COc1ccc(C2C(C(=O)c3ccc4c(c3)OCCO4)=C(O)C(=O)N2c2nc3ccc(Cl)cc3s2)cc1 (stereo not shown) [AD84],98.7 ± 5.1; 4%,–,–,remaining activity at 30 µM [1]: 98.7 ± 5.1%; activity at 30 µM [2]: 82.1 ± 4%; TbTryS Activity ± 2σn-1 (%) ([3]; 30 µM): 119.0 ± 6.3; 8 (0.95) %; activity at 30 µM [3]: 119%
O=C(C1=C(O)C(=O)N(c2nc3ccc(Cl)cc3s2)C1c1ccc(F)cc1)c1ccc2c(c1)OCCO2 (stereo not shown) [ADMRC150],81.2 ± 4.1; 4%,63.0 ± 6.8; 7%,101.4 ± 8.2; 12%,% LiTryS inhibition ± 2σn-1 [2]: ~35%
Cc1ccc2nc(N3C(=O)C(O)=C(C(=O)c4ccc5c(c4)OCCO5)C3c3ccccc3)sc2c1 (stereo not shown) [ADMRC151],97.0 ± 5.2; 3%,83.1 ± 2.3; 3%,107.7 ± 6.1; 3%,–
COc1cc(C2C(C(=O)c3ccc4c(c3)OCCO4)=C(O)C(=O)N2c2nc3ccc(C)cc3s2)ccc1O (stereo not shown) [ADMRC152],103.1 ± 6.2; 3%,92.5 ± 6.6; 4%,115.4 ± 4.3; 3%,–
COc1ccc(C2C(C(=O)c3ccc4c(c3)OCCO4)=C(O)C(=O)N2c2nc3ccc(C)cc3s2)cc1OC (stereo not shown) [ADMRC153],109.3 ± 4.7; 4%,87.6 ± 6.0; 4%,103.3 ± 3.2; 3%,–
Cc1ccc2nc(N3C(=O)C(O)=C(C(=O)c4ccc5c(c4)OCCO5)C3c3ccc(F)cc3)sc2c1 (stereo not shown) [ADMRC154],93.9 ± 2.1; 3%,64.7 ± 3.7; 4%,110.3 ± 8.7 ; 12%,% LiTryS inhibition ± 2σn-1 [2]: ~35%
COc1ccc2nc(N3C(=O)C(O)=C(C(=O)c4ccc5c(c4)OCCO5)C3c3ccc(OC)c(OC)c3)sc2c1 (stereo not shown) [ADMRC155],104.0 ± 6.6; 4%,89.3 ± 7.4; 3%,97.5 ± 3.4; 3%,–
COc1ccc2nc(N3C(=O)C(O)=C(C(=O)c4ccc5c(c4)OCCO5)C3c3ccc(O)c(OC)c3)sc2c1 (stereo not shown) [ADMRC156],102.2 ± 8.8; 4%,79.4 ± 4.6; 4%,108.1 ± 6.5; 3%,–
COc1ccc(C2C(C(=O)c3ccc4c(c3)OCCO4)=C(O)C(=O)N2c2nc3ccc(Cl)cc3s2)cc1OC (stereo not shown) [ADMRC157],109.2 ± 1.5; 4%,89.1 ± 2.8; 4%,102.1 ± 0.01; 3%,–
COc1cc(C2C(C(=O)c3ccc4c(c3)OCCO4)=C(O)C(=O)N2c2nc3ccc(Cl)cc3s2)ccc1O (stereo not shown) [ADMRC158],97.4 ± 6.1; 4%,–,–,remaining activity at 30 µM [1]: 97.4 ± 6.1%; activity at 30 µM [2]: 85.3 ± 8.7%; TbTryS Activity ± 2σn-1 (%) ([3]; 30 µM): 119.1 ± 4.6; 5 (0.88) %; activity at 30 µM [3]: 119%
O=C(C1=C(O)C(=O)N(c2nc3ccc(Cl)cc3s2)C1c1ccccc1)c1ccc2c(c1)OCCO2 (stereo not shown) [ADMRC159],97.2 ± 7.8; 2%,64.1 ± 2.7; 4%,91.7 ± 6.5; 3%,% LiTryS inhibition ± 2σn-1 [2]: ~35%
COc1ccc(C2C(C(=O)c3ccc4c(c3)OCCO4)=C(O)C(=O)N2c2nc3ccc(OC)cc3s2)cc1 (stereo not shown) [ADPKN160],97.6 ± 3.7; 4%,–,–,remaining activity at 30 µM [1]: 97.6 ± 3.7%; activity at 30 µM [2]: 77.9 ± 3.6%; TbTryS Activity ± 2σn-1 (%) ([3]; 30 µM): 116.4 ± 4.2; 4 (0.87) %; activity at 30 µM [3]: 116%
O=C(C1=C(O)C(=O)N(c2nc3ccccc3s2)C1c1ccc(F)cc1)c1ccc2c(c1)OCCO2 (stereo not shown) [ADPKN161],90.8 ± 5.8; 4%,–,–,remaining activity at 30 µM [1]: 90.8 ± 5.8%; activity at 30 µM [2]: 83.5 ± 9.2%; activity at 30 µM [3]: 127%
COc1ccc(C2C(C(=O)c3ccc(OC)c(OC)c3)=C(O)C(=O)N2c2nc3ccc(Cl)cc3s2)cc1 (stereo not shown) [ADPKN163],113.6 ± 3.4; 4%,82.3 ± 7.7; 3%,88.0 ± 5.0; 4%,–
COc1ccc(C(=O)C2=C(O)C(=O)N(c3nc4ccc(Cl)cc4s3)C2c2ccc(F)cc2)cc1OC (stereo not shown) [ADPKN164],99.6 ± 5.7; 4%,–,–,remaining activity at 30 µM [1]: 99.6 ± 5.7%; inhibition at 30 µM ([2]; read-out: % LiTryS inhibition ± 2σn-1): ~35%; activity at 30 µM [2]: 66 ± 3.4%; TbTryS Activity ± 2σn-1 (%) ([3]; 30 µM): 123.2 ± 7.0; 4 (0.83) %; activity at 30 µM [3]: 123%
COc1ccc(C2C(C(=O)c3ccc4c(c3)OCCO4)=C(O)C(=O)N2c2nc3ccccc3s2)cc1 (stereo not shown) [ADPKN165],107.1 ± 4.5; 4%,–,–,remaining activity at 30 µM [1]: 107 ± 4.5%; activity at 30 µM [2]: 83.5 ± 6%; activity at 30 µM [3]: 166%
COc1ccc(C2C(C(=O)c3ccc(OC)c(OC)c3)=C(O)C(=O)N2c2nc3ccc(OC)cc3s2)cc1 (stereo not shown) [ADPKN 162],98.1 ± 4.7; 4%,79.8 ± 3.4; 4%,82.0 ± 1.6; 3%,–

SMILES,TcTryS Activity ± 2σn-1 (%) [1],LiTryS Activity ± 2σn-1 (%) [2],TbTryS Activity ± 2σn-1 (%) [3],other results
COc1ccc(CNCCCNCc2ccc(OC)cc2)cc1 [APC1-67],–,–,–,remaining activity at 30 µM [1]: 92.4%; activity at 30 µM [2]: 102%; activity at 30 µM [3]: 71.9%
c1ccc(COc2ccc(CNCCCNCc3ccc(OCc4ccccc4)cc3)cc2)cc1 [APC1-71B],99.0 ± 19.1; 2%,80.8 ± 8.7; 3%,66.0 ± 0.7; 3%,–
COc1cc(CNCCCNCc2ccc(OCc3ccccc3)c(OC)c2)ccc1OCc1ccccc1 [APC1-79],63.3 ± 2.7; 2%,72.1 ± 3.4; 4 (1.27) %,66.0 ± 2.9; 4%,–
COc1cc(CNCCCNCc2ccc(O)c(OC)c2)ccc1O [APC1-82],92.9 ± 5.6; 4%,84.9 ± 0.9; 4%,88.1 ± 4.4; 3%,–
c1ccc(COc2ccc(CNCCCCNCc3ccc(OCc4ccccc4)cc3)cc2)cc1 [APC1-87],–,–,–,inhibition at 30 µM [1]: 26.6 ± 4.1%; remaining activity at 30 µM [1]: 73.4%; IC50 ([2]; read-out: LiTryS IC50 (estimated)): ~30 µM; inhibition at 30 µM ([3]; read-out: % TbTryS inhibition ± 2σn-1): 37.9 ± 4%; activity at 30 µM [3]: 62.1%
COc1cc(CNCCCCNCc2ccc(O)c(OC)c2)ccc1O [APC1-93],94.4 ± 2.4; 4%,101.3 ± 8.7. 4%,94.0 ± 9.1; 5%,–
COc1ccc(CNCCCCCCNCc2ccc(OC)cc2)cc1 [APC1-98],94.2 ± 5.5; 2%,79.6 ± 5.6; 4%,72.8 ± 3.7; 4%,–
c1ccc(COc2ccc(CNCCCCCCNCc3ccc(OCc4ccccc4)cc3)cc2)cc1 [APC1-99],–,–,–,inhibition at 30 µM [1]: 33.4 ± 4.1%; remaining activity at 30 µM [1]: 66.6%; IC50 [3]: ~30 µM
c1ccc(COc2ccc(CNCCCCCCCCNCc3ccc(OCc4ccccc4)cc3)cc2)cc1 [APC1-109],66.2 ± 10.9; 2%,72.2 ± 6.2; 4%,–,–
c1ccc(CNCCCCCCCCCCNCc2ccccc2)cc1 [APC1-113],88.5 ± 6.6; 3%,86.9 ± 6.3; 3%,89.5 ± 3.6; 3%,–
COc1ccc(CNCCCCCCCCCCNCc2ccc(OC)cc2)cc1 [APC1-115],76.1 ± 2.5; 4%,79.8 ± 2.3; 3%,69.0 ± 6.3; 3%,–
c1ccc(COc2ccc(CNCCCCCCCCCCNCc3ccc(OCc4ccccc4)cc3)cc2)cc1 [APC1-117],90.8 ± 12.3; 2%,69.8 ± 6.5; 3%,71.4 ± 6.1; 4%,–
COc1cc(CNCCCCCCCCCCNCc2ccc(OCc3ccccc3)c(OC)c2)ccc1OCc1ccccc1 [APC1-119],101.5 ± 1.9; 4 (1.18) %,78.1 ± 9.8; 6 (1.219) %,55.5 ± 1.8. 3 (1.11) %,–
COc1cc(CNCCCCCCNCc2ccc(O)c(OC)c2)ccc1O [APC1-121],92.9 ± 5.0; 4%,95.0 ± 7.8; 4%,91.1 ± 4.8; 3%,–
COc1cc(CNCCCCCCCCNCc2ccc(O)c(OC)c2)ccc1O [APC1-122],94.5 ± 7.0; 4%,102.8 ± 8.6; 3%,91.6 ± 3.6; 3%,–
COc1cc(CNCCCCCCCCCCNCc2ccc(O)c(OC)c2)ccc1O [APC1-123],88.8 ± 6.5; 4%,94.3 ± 8.2; 3%,86.0 ± 5.5; 3%,–
"CCCCn1c(=O)[nH]c(=O)c2c1nc(CSc1cccc(C(F)(F)F)c1)n2C [Compound C3, reference compound]",91.1 ± 4.6; 4%,84.5 ± 3.3; 3%,92.7 ± 3.6; 3%,–
Cc1ccc2c(c1)no[n+]2[O-] [Compound J10],92.6 ± 10.8; 3%,84.7 ± 10.5; 4%,92.7 ± 3.4; 3%,–
Cc1cc2no[n+]([O-])c2cc1C [Compound J11],86.4 ± 2.9; 4%,103.6 ± 10.4; 3%,88.8 ± 5.8; 4%,–
"CN1CCN(CCCN2c3ccccc3Sc3ccc(Cl)cc32)CC1 [prochlorperazine, reference compound]",–,–,–,inhibition of TcTryS [1]: none of the TryS was inhibited; reduction of TcTryS activity [1]: 34%
